Laboratory results from patent publication US8067442B2, “Heterocyclic antiviral compounds” (Roche Palo Alto LLC, priority 2008, dated 2011).

What was measured:
[1] = biological target: T1, HCV polymerase (NS5B570n-Con1) (Hepatitis C virus genotype 1b, UniProt Q9WMX2); assay: biochemical; design: species or system HCV Con1 strain
T1 construct: a 21 amino acid C-terminal deletion of full-length HCV polymerase; made in house; host or cells: E. coli BL21(DE3) pLysS, plasmid pET17b
Description: The enzymatic activity of HCV polymerase (NS5B570n-Con1) was measured as the incorporation of radiolabeled nucleotide monophosphates into acid insoluble RNA products. Unincorporated radiolabeled substrate was removed by filtration and scintillant was added to the washed and dried filter plate containing radiolabeled RNA product. The amount of RNA product generated by NS5B570n-Con1 at the end of the reaction was directly proportional to the amount of light emitted by the scintillant.
The HCV polymerase used in the enzymatic activity assay is a 21 amino acid C-terminal deletion of full-length HCV polymerase derived from HCV Con1 strain, genotype 1b (GenBank accession number AJ242654) (NS5B570n-Con1). The NS5B570n-Con1 was sub-cloned downstream to the T7 promoter of the plasmid expression construct pET17b and transformed into E. coli strain BL21(DE3) pLysS for protein expression. A single colony was used to start an innoculum for a 10 L culture in LB media supplemented with 100 μg/mL ampicillin at 37° C. Protein expression was induced by the addition of 0.25 mM isopropyl-β-D-thiogalactopyranoside (IPTG) when the optical density of the culture at […] was 0.8. Induction of protein expression was carried out at 30° C. for 16 h after which the cells were harvested by centrifugation. NS5B570n-Con1 was purified to homogeneity using a three-column purification protocol including subsequent column chromatography on Ni-NTA, SP-Sepharose HP and Superdex 75 resins.
Enzymatic reactions in the presence of cIRES RNA template (see section [0300]) contained 20 nM cIRES RNA, 20 nM NS5B570n-Con1 enzyme, 0.5 μCi of tritiated UTP (Perkin Elmer catalog no. TRK-412; specific activity: 30 to 60 Ci/mmol), 1 μM each ATP, CTP, and GTP, 40 mM Tris-HCl pH 8.0, 40 mM NaCl, 4 mM DTT (dithiothreitol), 4 mM MgCl2, 5 μl of compound serial diluted in DMSO, and nuclease-free water to a final reaction volume of 50 μl. Enzymatic reactions in the presence of 20 nM cIRES template, 20 nM NS5B570n-Con1 enzyme, 1 μCi of tritiated UTP (Perkin Elmer catalog no. TRK-412; specific activity: 30 to 60 Ci/mmol), 40 mM Tris-HCl pH 8.0, 40 mM NaCl, 4 mM DTT (dithiothreitol), 4 mM MgCl2, 5 μl of compound serial diluted in DMSO, and nuclease-free water to a final reaction volume of 50 μl. Reaction mixtures were assembled in 96-well filter plates (cat #MADVNOB, Millipore Co.) and incubated for 2 h at 30° C. Reactions were stopped by addition of 10% final (v/v) trichloroacetic acid and incubated for 40 min at 4° C. Reactions were filtered, washed with 8 reaction volumes of 10% (v/v) trichloroacetic acetic acid, 4 reaction volumes of 70% (v/v) ethanol, air dried, and 25 μl of scintillant (Microscint 20, Perkin-Elmer) was added to each reaction well.
Two RNA templates can be used to assay compounds described herein. The cIRES RNA template is 377 nucleotide long and consisting of a partial complementary sequence (36 nucleotides) of the core protein, followed by 341 nucleotide of the complementary sequence of the internal ribosome entry site. The poly A RNA template (GE Amersham catalog number 27-4110) was a homopolymeric RNA pre-annealed to a oligo(rU)16 primer at a molar ratio of 3-to-1 (primer-template). The cIRES template was used in the assay unless otherwise noted.
The amount of light emitted from the scintillant was converted to counts per minute (CPM) on a Topcount® plate reader (Perkin-Elmer, Energy Range: Low, Efficiency Mode Normal, Count Time: 1 min, Background Subtract: none, Cross talk reduction: Off).
Data was analyzed in Excel® (Microsoft®) and ActivityBase® (Idbs®). The reaction in the absence of enzyme was used to determine the background signal, which was subtracted from the enzymatic reactions. […] All data was expressed as a percentage of the positive control. The compound concentration at which the enzyme-catalyzed rate of RNA synthesis was reduced by 50% (IC50) was calculated by fitting

| SMILES | IC50 [1] | melting point |
| --- | --- | --- |
| CC(C)(C)c1cc(-c2ccc[nH]c2=O)cc2c(C(=O)Nc3cccc(CNS(C)(=O)=O)c3)coc12 [Compound I-85] | 741 nM | 237 to 239 °C |
| CC(C)(C)c1cc(-c2ccc[nH]c2=O)cc2c(C(=O)Nc3cccc(NS(C)(=O)=O)c3)coc12 [Compound I-83] | 201 nM | 290 to 291 °C |
| COc1cccc(-c2coc3c(C(C)(C)C)cc(-c4ccc[nH]c4=O)cc23)c1 [Compound I-33] | 14 nM | 204 to 205 °C |
| CC(C)(C)c1cc(-c2ccc[nH]c2=O)cc2c(C(=O)N3CCC[C@@H]3CNS(C)(=O)=O)csc12 [Compound 116, N-{(R)-1-[7-tert-Butyl-5-(2-oxo-1,2-dihydro-pyridin-3-yl)-benzo[b]thiophene-3-carbonyl]-pyrrolidin-2-ylmethyl}-methanesulfonamide] | 4 nM | 289 to 291 °C |
| CC(C)(C)c1cc(-c2ccc[nH]c2=O)cc2c(C(=O)Nc3nccs3)coc12 [Compound I-84] | 357 nM | > 300 °C |
| CC(C)(C)c1cc(-c2ccc[nH]c2=O)cc2c(C(=O)N3CC[C@H](CNS(=O)(=O)C4CC4)C3)coc12 [Compound I-107] | 17 nM | 158 to 160 °C |
| CC(C)(C)c1cc(-c2ccc[nH]c2=O)cc2c(-c3cnc(N)nc3)coc12 [Compound I-89] | 690 nM | > 300 °C |
| CC(C)(C)c1cc(-c2ccc[nH]c2=O)cc2ccoc12 [Compound I-2, 3-(7-tert-Butyl-benzofuran-5-yl)-1H-pyridin-2-one] | 202 nM | 217 to 218 °C |
| CC(C)(C)c1cc(-c2ccc[nH]c2=O)cc2c(-c3ccccc3)coc12 [Compound I-24] | 19 nM | 257 to 258 °C |
| CC(C)(C)c1cc(-c2ccc[nH]c2=O)cc2c(C(=O)N3CCCC(CNS(C)(=O)=O)C3)csc12 (stereo not drawn) [Compound 114, N-{1-[7-tert-Butyl-5-(2-oxo-1,2-dihydro-pyridin-3-yl)-benzo[b]thiophene-3-carbonyl]-piperidin-3-ylmethyl}-methanesulfonamide] | 3 nM | 175 to 177 °C |
| CCS(=O)(=O)NC[C@H]1CCN(C(=O)c2coc3c(C(C)(C)C)cc(-c4ccc[nH]c4=O)cc23)C1 [Compound I-106] | 17 nM | 240 to 242 °C |
| CC(C)(C)c1cc(-c2ccc[nH]c2=O)cc2c(-c3ccc(CN(CCO)S(C)(=O)=O)cc3)coc12 [Compound I-76, N-{4-[7-tert-Butyl-5-(2-oxo-1,2-dihydro-pyridin-3-yl)-benzofuran-3-yl]-benzyl}-N-(2-hydroxy-ethyl)-methanesulfonamide] | 35 nM | 222 to 224 °C |
| CC(C)(C)c1cc(-c2ccc[nH]c2=O)cc2c(C(=O)N3CCC[C@H](N)C3)coc12 [Compound I-41] | 126 nM | 269 to 270 °C |
| CC(C)(C)c1cc(-c2ccc[nH]c2=O)cc2c(C(=O)N3CCC(CN)C3)coc12 (stereo not drawn) [Compound I-49] | 104 nM | > 300 °C |
| CC(NS(C)(=O)=O)c1ccc(-c2coc3c(C(C)(C)C)cc(-c4ccc[nH]c4=O)cc23)cc1 (stereo not drawn) [Compound I-88, N-(1-{4-[7-tert-Butyl-5-(2-oxo-1,2-dihydro-pyridin-3-yl)-benzofuran-3-yl]-phenyl}-ethyl)-methanesulfonamide] | 8 nM | 255 to 257 °C |
| COCc1cc(CNS(C)(=O)=O)ccc1-c1coc2c(C(C)(C)C)cc(-c3ccc[nH]c3=O)cc12 [Compound I-97, N-{4-[7-tert-Butyl-5-(2-oxo-1,2-dihydro-pyridin-3-yl)-benzofuran-3-yl]-3-methoxymethyl-benzyl}-methanesulfonamide] | 515 nM | 128 to 130 °C |
| Cn1cc(C(=O)N2CC[C@H](CNS(C)(=O)=O)C2)c2cc(-c3ccc[nH]c3=O)cc(C(C)(C)C)c21 [Compound I-111, N-{(S)-1-[7-tert-Butyl-1-methyl-5-(2-oxo-1,2-dihydro-pyridin-3-yl)-1H-indole-3-carbonyl]-pyrrolidin-3-ylmethyl}-methanesulfonamide] | 8 nM | 168 to 170 °C |
| CC(C)(C)c1cc(-c2ccc[nH]c2=O)cc2c(C(=O)N3CCCC(CN)C3)coc12 (stereo not drawn) [Compound I-50] | 51 nM | 150 to 155 °C |
| CC(C)(C)c1cc(-c2ccc[nH]c2=O)cc2c(C(=O)N3CCC[C@@H](N)C3)coc12 [Compound I-42] | 549 nM | 254.9 to 258.1 °C |
| CC(C)(C)c1cc(-c2ccc[nH]c2=O)cc2c(C(=O)c3ccccc3)coc12 [Compound I-20] | 49 nM | 271 to 272 °C |
| CC(C)(C)c1cc(-c2ccc[nH]c2=O)cc2c(-c3cccc(CNS(C)(=O)=O)c3)coc12 [Compound I-81] | 175 nM | 130 to 133 °C |
| Cc1ccc(-c2cc(C(C)(C)C)c3occ(C(=O)N4CC[C@H](CNS(C)(=O)=O)C4)c3c2)c(=O)[nH]1 [Compound I-98] | 16 nM | 178 to 180 °C |
| CC(C)(C)c1cc(-c2ccc[nH]c2=O)cc2c(-c3ccc(CNS(C)(=O)=O)cc3)coc12 [Compound I-37, N-{4-[7-tert-Butyl-5-(2-oxo-1,2-dihydro-pyridin-3-yl)-benzofuran-3-yl]-benzyl}1-methanesulfonamide] | 4 nM | 271 to 273 °C |
| CC(C)(C)c1cc(-c2ccc[nH]c2=O)cc2c(-c3cccc(NS(C)(=O)=O)c3)coc12 [Compound I-82, N-{3-[7-tert-Butyl-5-(2-oxo-1,2-dihydro-pyridin-3-yl)-benzofuran-3-yl]-phenyl}-methanesulfonamide] | 113 nM | 227 to 230 °C |
| CN(C[C@H]1CCN(C(=O)c2coc3c(C(C)(C)C)cc(-c4ccc[nH]c4=O)cc23)C1)S(C)(=O)=O [Compound I-105, N-{(S)-1-[7-tert-Butyl-5-(2-oxo-1,2-dihydro-pyridin-3-yl)-benzofuran-3-carbonyl]-pyrrolidin-3-ylmethyl}-N-methyl-methanesulfonamide] | 25 nM | 155 to 157 °C |
| CC(C)S(=O)(=O)NC[C@H]1CCN(C(=O)c2coc3c(C(C)(C)C)cc(-c4ccc[nH]c4=O)cc23)C1 [Compound I-108] | 25 nM | 163 to 165 °C |
| CC(C)(C)c1cc(-c2cc(F)c[nH]c2=O)cc2c(C(=O)N3CC[C@H](CNS(C)(=O)=O)C3)coc12 [Compound I-92] | 29 nM | 296 to 298 °C |
| Cn1cc(C(N)=O)c2cc(-c3ccc[nH]c3=O)cc(C(C)(C)C)c21 [Compound I-112] | 778 nM | 232 to 234 °C |
| CC(C)(C)c1cc(-c2ccc[nH]c2=O)cc2c(C(=O)N3CC[C@H](CNS(C)(=O)=O)C3)coc12 [Compound I-72] | 8 nM | 258 to 260 °C |
| CC(C)(C)c1cc(-c2ccc[nH]c2=O)cc2c(CC#N)coc12 [Compound I-5, [7-tert-Butyl-5-(2-oxo-1,2-dihydro-pyridin-3-yl)-benzofuran-3-yl]-acetonitrile] | 330 nM | 231 to 232 °C |
